Data on two compounds can be found in patent US20240245694A1, “Tricyclic Compounds and their Uses” (Novartis AG, priority 2022, published 2024).

One may read the IC50 as the concentration at which inhibition is half-maximal. Low readings indicate inhibition by little substance, high ones a need for much substance.

The target in data set [1] is WRN helicase (core helicase motif aa N517-P1238) (Homo sapiens (Human), UniProt Q14191). As to the kind of experiment: WRN ATPase assay (ADP-Glo), DNA dependent ATP hydrolysis. The conditions noted are these: 3 hours pre-incubation, 300 micromolar ATP, FLAP26 ssDNA; geometric means of at least 2 determinations. The format is biochemical. The method, boiled down:
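Uses the WRN core helicase (aa N517-P1238) with single-strand 45-mer FLAP26 DNA in Tris pH 7.5, MgCl2, NaCl, BSA and pluronic buffer. Compound was pre-incubated 3 h with enzyme and ATP; reaction then run with 10 nM WRN, 0.2 nM FLAP26 and 300 µM ATP for 30 min at room temperature. ADP quantified by ADP-Glo luminescence; IC50 from duplicate 4-parameter fits, geometric mean of ≥2 runs.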

Data set [2] can be described thus: Tolerability (body weight) in the SW48 xenograft study. The format is in vivo, Crl:NU(NCr)-Foxn1nu nude mice. The procedure:
Experiments were performed in female Crl:NU(NCr)-Foxn1^nu-homozygous nude mice (Charles River). Animals were housed under Optimized Hygienic Conditions in Allentown XJ cages (IVC, max. 6 mice per cage) with food and water at libitum and a 12 h:12 h light:dark cycle. Animals were allowed to acclimatize for at least 1 week before being enrolled in the experimental design. The study described here was performed according to license 1975 approved by the Basel Cantonal Veterinary Office.
Amorphous sodium salt of test compound (corrected by salt factor) was dissolved in an aqueous 20% w/v solution of 2-hydroxypropyl-beta-cyclodextrin (HPBCD). A range of concentrations was prepared by serial dilution starting from the solution at highest concentration for the highest dose in the study.
Treatment was initiated about two weeks post tumor cell inoculation, when the xenografts had reached a mean volume of approximately 200 mm^3. The tumor bearing animals were randomized based on tumor volumes into experimental groups with 6 animals per group and treatment was initiated. Compounds were dosed orally (p.o.) once per day (qd) at 1, 3, 5 or 10 mg/kg (Example 18A) and at 0.1, 0.3, 1, 3 mg/kg (Example 21A). In addition, a control group treated once per day with vehicle (20% 2-hydroxypropyl-β-cyclodextrin) was included in each study. Tumor volumes and body weights were measured two times per week until the study termination.

Chain of WRN helicase (core helicase motif aa N517-P1238) (Q14191 517-1238): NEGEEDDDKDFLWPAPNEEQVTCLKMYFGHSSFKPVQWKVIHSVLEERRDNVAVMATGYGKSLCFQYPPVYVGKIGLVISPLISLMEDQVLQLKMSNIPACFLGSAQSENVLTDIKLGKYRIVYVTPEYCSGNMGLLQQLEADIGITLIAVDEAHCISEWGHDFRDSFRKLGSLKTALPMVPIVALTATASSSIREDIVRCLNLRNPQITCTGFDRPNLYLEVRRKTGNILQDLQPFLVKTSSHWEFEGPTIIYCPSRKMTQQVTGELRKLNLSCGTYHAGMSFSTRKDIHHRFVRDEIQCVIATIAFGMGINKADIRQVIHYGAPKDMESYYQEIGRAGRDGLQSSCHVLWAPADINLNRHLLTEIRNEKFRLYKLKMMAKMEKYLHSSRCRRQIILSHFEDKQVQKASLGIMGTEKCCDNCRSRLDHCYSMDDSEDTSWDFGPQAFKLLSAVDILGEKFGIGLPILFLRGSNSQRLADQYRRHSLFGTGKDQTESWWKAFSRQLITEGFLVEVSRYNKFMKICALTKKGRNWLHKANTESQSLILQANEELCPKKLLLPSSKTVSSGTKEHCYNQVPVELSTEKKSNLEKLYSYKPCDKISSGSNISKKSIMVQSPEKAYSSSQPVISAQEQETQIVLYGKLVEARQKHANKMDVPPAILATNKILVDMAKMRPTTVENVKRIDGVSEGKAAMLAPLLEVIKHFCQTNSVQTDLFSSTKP

In data set [1], `Cc1ncnc(C(=O)N2CCN(c3c4n(c5nc(C6=CCOCC6)nn5c3=O)[C@@H](C(=O)Nc3ccc(C(F)(F)F)cc3Cl)C[C@H]4C)C[C@H]2C)c1O` [Example 18A, (7R,9R)—N-(2-chloro-4-(trifluoromethyl)phenyl)-2-(3,6-dihydro-2H-pyran-4-yl)-6-((R)-4-(5-hydroxy-6-methylpyrimidine-4-carbonyl)-3-methylpiperazin-1-yl)-7-methyl-5-oxo-5,7,8,9-tetrahydropyrrolo[1,2-c][1,2,4]triazolo[1,5-a]pyrimidine-9-carboxamide] showed a concentration for half-maximal inhibition (IC50) of 50 nM. In addition, in data set [2] (1, 3, 5 or 10 mg/kg p.o. qd, after the initial body weight loss), the “body weight gain, of the body weight at start” value is reported as “up to 18%”. In data set [2] (1, 3, 5 or 10 mg/kg p.o. qd, first ten days of treatment), the “initial body weight loss among individual animals” value is not above 14%.

Consider `Cc1ncnc(C(=O)N2CCN(c3c4n(c5nc(C6=CCOCC6)nn5c3=O)[C@@H](C(=O)Nc3ccc(C(F)(F)F)cc3Cl)C[C@H]4C)[C@H]3CC[C@@H]32)c1O` [Example 21A, (7R,9R)—N-(2-chloro-4-(trifluoromethyl)phenyl)-2-(3,6-dihydro-2H-pyran-4-yl)-6-((1S,6S)-5-(5-hydroxy-6-methylpyrimidine-4-carbonyl)-2,5-diazabicyclo[4.2.0]octan-2-yl)-7-methyl-5-oxo-5,7,8,9-tetrahydropyrrolo[1,2-c][1,2,4]triazolo[1,5-a]pyrimidine-9-carboxamide], for which it took 30 nM to reach half-maximal inhibition in data set [1] (IC50). Also, the tolerability entry in data set [2] (0.1, 0.3, 1, 3 mg/kg p.o. qd, throughout the study) is given as “well tolerated”. Besides, in data set [2] (0.1, 0.3, 1, 3 mg/kg p.o. qd, not dose-dependent), the “body weight loss among individual animals on individual occasions” value was not above 15%.
